Counter-ions that a name gives are not always drawn. Like-named read-outs stand apart in the source and are kept apart here.
Legend:
[1] = target: KRAS protein containing G12D mutation (Homo sapiens (Human), UniProt P01116, G12D); test: SOS-catalyzed nucleotide exchange assay (GNE), TR-FRET; assay type: biochemical; settings: biotinylated KRAS G12D, SOS and GTP, 60-minute incubation
Experimental: Compounds are added to this complex and then after a 60-minute incubation time the mixture is treated with SOS and unlabeled GTP. Small molecule inhibitors stabilize the Bodipy-GDP complex whereas the untreated protein rapidly exchanges Bodipy-GDP for unlabeled GTP resulting in reduced TR-FRET signal.
This solution is referred to as biotinylated KRAS G12D stock solution.

[2] = test system: AsPC-1 cells containing homozygous KRAS-G12D activating mutation; test: Cellular phospho-ERK assay with 10% FBS (Examples 107a-256); assay type: cell-based
Experimental: 5% CO2 for 2 hours. […] Assay plates were read on a EnVision Multimode Plate Reader (PerkinElmer) and the ratio of p-Erk vs total Erk in each well was used as the final readout.

[3] = Homo sapiens, ASPC1, 2 h, read-out: IC50 (nM) pERK (cell with FBS 10%), AsPC-1 cells, 10% fetal bovine serum, 2 hours, ratio of p-Erk vs total Erk
[4] = read-out: IC50 (nM) pERK (cell with FBS 10%), AsPC-1 cells, 10% fetal bovine serum, 2 hours, ratio of p-Erk vs total Erk

Sequence of KRAS protein containing G12D mutation (P01116 other isoform, or with tags, fused parts or gaps G12D (already in the parent)): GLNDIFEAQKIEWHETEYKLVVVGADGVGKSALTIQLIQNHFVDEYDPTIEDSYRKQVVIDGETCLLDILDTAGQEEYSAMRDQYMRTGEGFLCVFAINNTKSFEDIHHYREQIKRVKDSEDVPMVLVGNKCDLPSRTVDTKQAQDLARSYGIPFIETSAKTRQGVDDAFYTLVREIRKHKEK

Structure (SMILES)	IC50 [1] [nM]	IC50 [2, 3] [nM]	IC50 [2, 4] [nM]	IC50 ([2]; Homo sapiens, ASPC1, 2 h, read-out: IC50 (nM) pERK (cell with FBS 10%)) [nM]
C#Cc1cccc2cc3[nH]ncc3c(-c3c(F)cc4c(N5C[C@H]6CC[C@@](C)(C5)N6)nc(OC[C@@]56CCCN5C[C@H](F)C6)nc4c3F)c12 [Ex. 195, 4-(6,8-difluoro-2-(((2R, 7aS)-2-fluorotetra-hydro-1H-pyrrolizin-7a(5H)-yl)methoxy)-4-((1S,5R)-1-methyl-3,8-diazabicyclo[3.2.1]-octan-3-yl)quinazolin-7-yl)-5-ethynyl-1H-benzo[f]indazole]	4.36	79.6		
C#Cc1ccc(F)c2cccc(-c3c(F)cc4c(N5C[C@H]6CC[C@@](C)(C5)N6)nc(OC[C@@]56CCCN5C[C@H](F)C6)nc4c3F)c12 [Ex. 196, 7-(8-ethynyl-5-fluoro-naphthalen-1-yl)-6,8-difluoro-2-(((2R,7aS)-2-fluorotetrahydro-1H-pyrrolizin-7a(5H)-yl)-methoxy)-4-((1S,5R)-1-methyl-3,8-diaza-bicyclo[3.2.1]octan-3-yl)quinazoline]	45.7	3410		
Oc1c(F)cc(Cl)c(Cl)c1-c1c(Cl)cc2c(N3C[C@H]4CC[C@@H](C3)N4)nc(OC[C@@]34CCCN3C[C@H](F)C4)nc2c1F [Ex. 199, 2-(4-((1R,5S)-3,8-diazabicyclo[3.2.1]-octan-3-yl)-6-chloro-8-fluoro-2-(((2R,7aS)-2-fluorotetrahydro-1H-pyrrolizin-7a(5H)-yl)-methoxy)quinazolin-7-yl)-3,4-dichloro-6-fluorophenol]	2620	30000		
CN(C[C@@]1(COc2nc(N3C[C@H]4CC[C@@](C)(C3)N4)c3cc(F)c(-c4cc(O)cc5cccc(Cl)c45)c(F)c3n2)CC1(F)F)[C@@H]1CCC[C@H]1O [Ex. 217a, 5-chloro-4-(2-(((R)-2,2-difluoro-1-((((1R,2R)-2-hydroxycyclopentyl)-(methyl)amino)methyl)cyclopropyl)methoxy)-6,8-difluoro-4-((1S,5R)-1-methyl-3,8-diazabicyclo[3.2.1]octan-3-yl)quinazolin-7-yl)naphthalen-2-ol]	12.7	2640		
CN(C[C@@]1(COc2nc(N3C[C@H]4CC[C@@](C)(C3)N4)c3cc(F)c(-c4cc(O)cc5cccc(Cl)c45)c(F)c3n2)CC1(F)F)[C@@H]1CCC[C@H]1O [Ex. 217b]	675		8570	
COCCN(C)C[C@@]1(COc2nc(N3CC4CC[C@@](C)(C3)N4)c3cc(F)c(-c4c(C(F)(F)F)c(C)cc5[nH]ncc45)c(F)c3n2)CC1(F)F [Ex. 223, (1S,5R)-3-(2-(((R)-2,2-difluoro-1-(((2-methoxyethyl)(methyl)amino)-methyl)cyclopropyl)methoxy)-6,8-difluoro-7-(6-methyl-5-(trifluorometh-yl)-1H-indazol-4-yl)quinazolin-4-yl)-1-methyl-3,8-diazabicyclo[3.2.1]-ocan-8-ium 2,2,2-trifluoroacetate]	425	27300		
Cc1cc(N)nc(-c2c(Cl)cc3c(N4C[C@H]5CC[C@@H](C4)N5)nc(OC[C@@]45CCCN4C[C@H](F)C5)nc3c2F)c1C(F)(F)F [Ex. 228b, 6-(4-((1R,5S)-3,8-diazabicyclo[3.2.1]octan-3-yl)-6-chloro-8-fluoro-2-(((2R,7aS)-2-fluorotetrahydro-1H-pyrrolizin-7a(5H)-yl)methoxy)quinazolin-7-yl)-4-methyl-5-(trifluoromethyl)pyridin-2-amine]	2.43			64.4
Cc1n[nH]c2ncc(C(F)(F)F)c(-c3c(F)cc4c(N5C[C@H]6CC[C@@H](C5)N6)nc(OC[C@@]56CCCN5C[C@H](F)C6)nc4c3F)c12 [Ex. 234, 4-((1R,5S)-3,8-diazabicyclo[3.2.1]octan-3-yl)-6,8-difluoro-2-(((2R,7aS)-2-fluorotetrahydro-1H-pyrrolizin-7a(5H)-yl)methoxy)-7-(3-methyl-5-(trifluoromethyl)-1H-pyrazolo[3.4-b]pyridin-4-yl)quinazoline]	64		785	
Cc1c(F)c(N)nc(-c2c(Cl)cc3c(N4C[C@H]5CC[C@@H](C4)N5)nc(OC[C@@]45CCCN4C[C@H](F)C5)nc3c2F)c1C(F)(F)F [Ex. 236]	3.11		68.7	
Cc1cc(N)nc(-c2c(F)cc3c(N4C[C@H]5CC[C@@H](C4)N5)nc(OC[C@@]45CCCN4C[C@H](F)C5)nc3c2F)c1C1CC1 [Ex. 237, 6-(4-((1R,5S)-3,8-diazabicyclo[3.2.1]octan-3-yl)-6,8-difluoro-2-(((2R,7aS)-2-fluorotetrahydro-1H-pyrrolizin-7a(5H)-yl)methoxy)quinazolin-7-yl)-5-cyclopropyl-4-methylpyridin-2-amine]	57.6	508		
Cc1cc(N)nc(-c2c(Cl)cc3c(N4C[C@H]5CC[C@@](C)(C4)N5)nc(OC[C@@]45CCCN4C[C@H](F)C5)nc3c2F)c1C(F)(F)F [Ex. 238a, 6-(6-chloro-8-fluoro-2-(((2R,7aS)-2-fluorotetrahydro-1H-pyrrolizin-7a(5H)-yl)methoxy)-4-((1S,5R)-1-methyl-3,8-diazabicyclo[3.2.1]octan-3-yl)quinazolin-7-yl)-4-methyl-5-(trifluoromethyl)pyridin-2-amine]	25.7	1590		
C[C@]12CC[C@H](CN(c3nc(OC[C@@H]4CC[C@]5(CO)CCCN45)nc4c(F)c(-c5cc(O)cc6cccc(Cl)c56)c(F)cc34)C1)N2 [Ex. 243b, 5-chloro-4-(6,8-difluoro-2-(((3S,7aS)-7a-(hydroxymethyl)hexahydro-1H-pyrrolizin-3-yl)methoxy)-4-((1S,5R)-1-methyl-3,8-diazabicyclo[3.2.1]octan-3-yl)quinazolin-7-yl)naphthalen-2-ol]	23.1	20500		
CN(C)CC1(COc2nc(N3C[C@H]4CC[C@@](C)(C3)N4)c3cc(F)c(-c4cc(O)cc5ccccc45)c(F)c3n2)CC1 [Example 115, 4-(2-((1-((dimethylamino)methyl)cyclopropyl)methoxy)-6,8-difluoro-4-((1S,5R)-1-methyl-3,8-diazabicyclo [3.2.1]octan-3-yl)quinazolin-7-yl) naphthalen-2-ol]	10.5	1470		
CN1CCC[C@H]1COc1nc(N2CC3CC[C@@](C)(C2)N3)c2cc(F)c(-c3cc(O)cc4ccccc34)c(F)c2n1 [Example 118, 4-(6,8-difluoro-4-((1S,5R)-1-methyl-3,8-diazabicyclo [3.2.1]octan-3-yl)-2-(((S)-1-ethylpyrrolidin-2-yl)methoxy)quinazolin-7-l)naphthalen-2-ol]	82.6	1810		
C[C@]12CC[C@H](CN(c3nc(OC[C@H]4CCNC4)nc4c(F)c(-c5cc(O)cc6ccccc56)c(Cl)cc34)C1)N2 [Example 119, 4-(6-chloro-8-fluoro-4-((1S,5R)-1-methyl-3,8-diazabicyclo[3.2.1]octan-3-yl)-2-(((S)-pyrrolidin-3-yl)methoxy)quinazolin-7-yl)naphthalen-2-ol, TFA]	1440	30000		
C[C@]12CC[C@H](CN(c3nc(OC[C@@H]4CCN(C5CCCCC5O)C4)nc4c(F)c(-c5cc(O)cc6ccccc56)c(Cl)cc34)C1)N2 (stereo partly drawn) [Example 121, 4-(6-chloro-8-fluoro-2-(((3R)-1-(2-hydroxycyclohexyl)pyrrolidin-3-yl)methoxy)-4-((1S,5R)-1-methyl-3,8-diazabicyclo[3.2.1]octan-3-yl)quinazolin-7-yl)naphthalen-2-ol, TFA]	615	11400		
C[C@]12CC[C@H](CN(c3nc(OC[C@@H]4CCNC4)nc4c(F)c(-c5cc(O)cc6ccccc56)c(Cl)cc34)C1)N2 [Example 122, 4-(6-chloro-8-fluoro-4-((1S,5R)-1-methyl-3,8-diazabicyclo[3.2.1]octan-3-yl)-2-(((R)-pyrrolidin-3-yl)methoxy)quinazolin-7-yl)naphthalen-2-ol, TFA]	964	30000		
C[C@@]12CC[C@H](CN(c3nc(OC[C@@]45CCCN4C[C@H](F)C5)nc4c(F)c(-c5cccc6ccc(F)c(F)c56)c(F)cc34)C1)N2 [compound 197, 7-(7,8-difluoronaph-thalen-1-yl)-6,8-difluoro-2-(((2R,7aS)-2-fluorotetrahydro-1H-pyrrolizin-7a(5H)-yl)-methoxy)-4-((1S,5R)-1-methyl-3,8-diaza-bicyclo[3.2.1]octan-3-yl)quinazoline]	52.4	4470		
COCCNC[C@@]1(COc2nc(N3C[C@H]4CC[C@@](C)(C3)N4)c3cc(F)c(-c4c(C(F)(F)F)c(C)cc5[nH]ncc45)c(F)c3n2)CC1(F)F [compound 205, (1S,5R)-3-(2-(((R)-2,2-difluoro-1-(((2-methoxyethyl)amino)methyl)cyclopropyl)methoxy)-6,8-difluoro-7-(6-methyl-5-(trifluoromethyl)-1H-indazol-4-yl)quinazolin-4-yl)-1-methyl-3,8-diazabicyclo[3.2.1]octan-8-ium 2,2,2-trifluoroacetate]	93.9	9380		
CCc1cnn2cc(O)cc(-c3c(F)cc4c(N5C[C@H]6CC[C@@](C)(C5)N6)nc(OC[C@@]56CCCN5C[C@H](F)C6)nc4c3F)c12 [compound 229, 4-(6,8-difluoro-2-(((2R,7aS)-2-fluorotetrahydro-1H-pyrrolizin-7a(5H)-yl)methoxy)-4-((1S,5R)-1-methyl-3,8-diazabicyclo[3.2.1]octan-3-yl)quinazolin-7-yl)-3-ethylpyrazolo[1.5-a]pyridin-6-ol]	98.5		1740	
